Test results published in ChEMBL document CHEMBL5727423, “Methods using HDAC11 inhibitors” (2019).

Molecular target: T1, Histone deacetylase 11 (Homo sapiens, UniProt Q96DB2)
T1 sequence (Q96DB2 whole entry): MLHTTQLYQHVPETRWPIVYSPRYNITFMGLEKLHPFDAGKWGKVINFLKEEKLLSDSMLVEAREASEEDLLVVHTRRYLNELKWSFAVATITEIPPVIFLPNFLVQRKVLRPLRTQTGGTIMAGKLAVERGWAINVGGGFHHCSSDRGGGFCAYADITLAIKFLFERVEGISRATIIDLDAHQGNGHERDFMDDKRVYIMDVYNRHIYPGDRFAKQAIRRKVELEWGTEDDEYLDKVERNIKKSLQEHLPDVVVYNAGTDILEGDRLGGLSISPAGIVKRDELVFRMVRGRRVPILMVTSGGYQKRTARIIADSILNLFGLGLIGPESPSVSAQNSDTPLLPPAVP
Assay: HDAC Inhibition Assays: This example describes in vitro inhibition properties of exemplary HDAC11 inhibitors for various HDACs. HDAC inhibition assays were performed using an electrophoretic mobility shift assay at Nanosyn, Inc. (Santa Clara, Calif.). Full length human recombinant HDAC proteins were expressed in the baculoviral system and purified by affinity chromatography. A human recombinant HDAC3 was co-expressed with nuclear receptor corepressor (Ncor2). The following peptide substrates were used: FAM-RHKK(Ac)-NH2 for HDAC3, HDAC6 and HDAC8; FITC-H3K27(Ac)-NH2 for HDAC1, HDAC2 and HDAC10; FAM-RHKK(tri-fluor-Ac)-NH2 for HDAC4, HDAC5, HDAC7, HDAC9 and HDAC11. Reactions consisting of compound, enzyme, and substrate were performed in reaction buffer (comprised of 100 mM HEPES, pH7.5, 25 mM KCl, 0.1% bovine serum albumin, 0.01% Triton X-100) at 25° C. and quenched by the addition of termination buffer (100 mM HEPES, pH7.5, 0.01% Triton X-100, 0.05% SDS). The fluorescence intensity of the electrophoretically separated de-acetylated product and substrate peptide were measured and analyzed using the LabChip® 3000 microfluidic electrophoresis instrument (Perkin Elmer/Caliper Life Sciences). The IC50 values of inhibitors were determined by fitting the %-inhibition curves with 4 parameter dose-response model using XLfit 4 software (IDBS).

N#Cc1cc2nc(Nc3cccc(C(=O)NO)c3)[nH]c2cc1C(F)(F)F
IC50: < 500 nM
